Experimental data from the NIST ThermoML archive (doi:10.1021/je900307z).
Numbers after ± are expanded uncertainties.

Columns and labels:
[1] = molar heat capacity at constant pressure; conditions: 101.33 kPa, Liquid, Small sample (50 mg) DSC
[2] = 101.33 kPa, Liquid; for viscosity: Capillary tube (Ostwald / Ubbelohde) method; for mass density: Vibrating tube method
[3] = refractive index (Na D-line) (dimensionless); conditions: 101.33 kPa, Liquid, Standard Abbe refractometry

molar heat capacity at constant pressure ([1]; 288.15 K) | molar heat capacity at constant pressure ([1]; 293.15 K) | molar heat capacity at constant pressure ([1]; 298.15 K) | molar heat capacity at constant pressure ([1]; 303.15 K) | molar heat capacity at constant pressure ([1]; 308.15 K) | molar heat capacity at constant pressure ([1]; 313.15 K) | molar heat capacity at constant pressure ([1]; 318.15 K) | molar heat capacity at constant pressure ([1]; 323.15 K) | viscosity ([2]; 293.15 K) | mass density ([2]; 293.15 K) | viscosity ([2]; 313.15 K) | mass density ([2]; 313.15 K) | refractive index ([3]; 293.15 K) | refractive index ([3]; 313.15 K) | Compound
166.28 ± 3.3 J/K/mol | 167.97 ± 3.4 J/K/mol | 169.48 ± 3.4 J/K/mol | 170.79 ± 3.4 J/K/mol | 172.22 ± 3.4 J/K/mol | 174.14 ± 3.5 J/K/mol | 175.87 ± 3.5 J/K/mol | 177.45 ± 3.5 J/K/mol | 2.778 ± 0.022 mPa·s | 1204.66 ± 0.18 kg/m3 | 1.909 ± 0.017 mPa·s | 1183.06 ± 0.17 kg/m3 | 1.4223 ± 0.0006 | 1.4149 ± 0.0006 | CC1COC(=O)O1 (configuration not stated) [4-methyl-1,3-dioxolan-2-one]
165.51 ± 3.3 J/K/mol | 166.07 ± 3.3 J/K/mol | 167.1 ± 3.3 J/K/mol | 168.48 ± 3.4 J/K/mol | 169.72 ± 3.4 J/K/mol | 170.83 ± 3.4 J/K/mol | 172.18 ± 3.4 J/K/mol | 173.68 ± 3.5 J/K/mol | 0.629 ± 0.006 mPa·s | 1069.8 ± 0.37 kg/m3 | 0.494 ± 0.005 mPa·s | 1043.25 ± 0.35 kg/m3 | 1.3689 ± 0.0006 | 1.3604 ± 0.0006 | COC(=O)OC [dimethyl carbonate]
210.2 ± 4.2 J/K/mol | 211.49 ± 4.2 J/K/mol | 212.46 ± 4.2 J/K/mol | 213.83 ± 4.3 J/K/mol | 214.89 ± 4.3 J/K/mol | 215.8 ± 4.3 J/K/mol | 218.55 ± 4.4 J/K/mol | 220.32 ± 4.4 J/K/mol | 0.817 ± 0.008 mPa·s | 975.84 ± 0.3 kg/m3 | 0.623 ± 0.007 mPa·s | 952.39 ± 0.3 kg/m3 | 1.3858 ± 0.0007 | 1.3764 ± 0.0007 | CCOC(=O)OCC [diethyl carbonate]
